Source: patent US20240293514A1, “PHARMACEUTICAL COMPOSITIONS COMPRISING GLP-1R AGONISTS” (4MOVING BIOTECH, priority 2021, published 2024)
Marks after values point to notes of the source that are not given here.

Tests used:
Assay type in all cases: in vivo, SD rats
[1] = system: MIA-induced model of osteoarthritis and inflammatory pain in rats; experiment: Electronic von Frey test, various GLP-1R agonists, MIA-induced model (Example 7, cycle 1)
Protocol: (§1) Seven groups comprising 8 SD rats per group were allocated for this study performed in 2 cycles (4 SD rats/cycle). Chemically-induced OA disease was performed on six out of seven groups by injecting intra-articularly (IA) in the right knee joint 3 mg of MIA in 30 μL on day 1. The control group (sham/vehicle control) received 30 μL of saline IA in the right knee joint. […] All groups 31M-37M received 1 IA injection of either saline (group 31M) or MIA (groups 32M to 37M) on day 1 and the treatment injection on day 3. During the study, body weight measurements (twice a week) and von Frey tests using electronic von Frey apparatus (on day 2, 7, for C1) and von Frey filaments (on day 10, 18, 24 and 30 for Cl, and on day 2, 7, 10, 18, 24 and 30 for C2) were performed. Group allocation was performed on day 2, based on von Frey results. Knee harvesting was performed for optional analyses at study termination at day 32.
(§2) A solution comprising dulaglutide is prepared from the product Trulicity®. Trulicity® is a commercial dulaglutide drug. Trulicity® is supplied as a “ready to use” solution at 4.5 mg/0.50 mL. It will be diluted in the appropriate volume of vehicle (NaCl 0.9%) for injection into knee joint of 270 μg in 30 μL per rat for group 33M.
(§3) Bydureon® is supplied as a “ready to use” solution at 2 mg/0.65 mL. It will be diluted in the appropriate volume of vehicle (NaCl 0.9%) for injection into knee joint of 92.31 μg in 30 μL per rat for group 34M.
(§4) Bydureon Bcise® is supplied as a “ready to use” solution at 2.35 mg/mL. It will be diluted in the appropriate volume of vehicle (NaCl 0.9%) for injection into knee joint of 70.6 μg in 30 μL per rat for group 35M.
(§5) A solution comprising lixisenatide is prepared from the product Adlyxin®. Adlyxin® is a commercial lixisenatide drug. Adlyxin® is supplied as a “ready to use” solution at 100 μg/mL. It will be diluted in the appropriate volume of vehicle (NaCl 0.9%) for injection into knee joint of 3 μg in 30 μL per rat for group 36M.
(§6) It will be diluted in the appropriate volume of vehicle (NaCl 0.9%) for injection into knee joint of 180 μg in 30 μL per rat for group 37M.
(§7) 56 male SD rats aged 9 weeks were anesthetized via a chamber induction technique using inhalation anesthesia (Isoflurane at 5%). During the procedure, the animal was maintained under Isoflurane at a level between 1.5 and 3% with an air flow rate of 1-2 liters/minute. After induction of anesthesia, the right hind limb skin surface was clipped free of hair using electric animal clippers. After shaving, the area surrounding the knee joint was wiped with alcohol. A volume of 30 μL containing 3 mg MIA was injected intra-articularly (IA) in the knee joint through the patellar tendon. A 29-gauge, 0.5-inch needle that fitted with cannulation tubing was used such that only 3 to 4 mm of the needle was allowed to puncture the joint. After injection, the knee was massaged to ensure even distribution of the solution. Animals were injected once on day 1 (groups 32M, 33M, 34M, 35M, 36M, 37M). For group 31M (sham control), 30 μL of injectable saline was injected into knee joint.
(§8) Von Frey test in the rats following MIA injection was conducted according to 4P-Pharma's proceedings “Mechanical Neuropathic Pain Evaluation (electronic Von Frey)” and to 4P-Pharma's proceedings “Mechanical Neuropathic Pain Evaluation (Von Frey)”. Rats were placed individually in the designated transparent Plexiglas chambers and allowed to acclimate for 10-15 min. Withdrawal response to mechanical stimulation was determined using electronic von Frey apparatus (BIO-EVF5, Bioseb) with a 0.5 mm diameter tip placed on the stimulator handle applied from underneath the cage through openings (12×12 mm) in the plastic mesh floor or with von Frey filaments (Bio-VF-M, Bioseb). The withdrawal response in gram-force for each rat was calculated from three trials for von Frey apparatus and once with von Frey filaments.

[2] = system: MIA-induced model of osteoarthritis and inflammatory pain in rats; experiment: Von Frey filaments test, various GLP-1R agonists, MIA-induced model (Example 7)
Protocol: as §1, §2, §3, §4, §5, §6, §7, §8

[3] = system: MIA-induced model of osteoarthritis and inflammatory pain in rats; experiment: Electronic and equivalent von Frey scores normalized to vehicle group (Example 7)
Protocol: Allodynia in rats following OA induction on day 1 was evaluated on day 2 and on day 7 using both Electronic (for cycle 1) and von Frey filaments (for cycle 2). Both tests are reliable and valid for the assessment of the mechanical sensitivity in the ipsilateral hind paw of rats. Additionally, von Frey filament score can be transposed approximately to an equivalent electronic von Frey score (theorical pressure in grams/mm^2). To assure the obtained results, we performed a test using both von Frey filaments and Electronic von Frey apparatus on three rats from three different groups (31M, 32M and 37M).
Equivalent electronic von Frey score was calculated using the “Aesthesio Precision Tactile sensory data chart” from the results obtained with von Frey filaments. Thus, to have a more representative vision of the results obtained in previous experiments using the electronic von Frey apparatus, we combine both the electronic von Frey scores obtained from Cycle 1 (Day 2 and 7) and the equivalent score calculated from the results obtained with the von Frey filaments for Cycle 1 (from day 10) and Cycle 2.

[4] = 270 μg IA once on day 3, D2 (baseline before treatment)
[5] = 180 μg IA once on day 3, D2 (baseline before treatment)
[6] = 3 μg IA once on day 3, D2 (baseline before treatment)

In the case of dulaglutide, the “right paw withdrawal threshold, Electronic von Frey (mean)” value [1, 4] is reported as 30.03 grams, the “right paw withdrawal threshold, Electronic von Frey (mean)” value ([1]; 270 μg IA once on day 3, D7) is reported as 50.98 grams and the “right paw withdrawal threshold, von Frey filaments (mean)” value [2, 4] is reported as 2.28^$$$ grams. The “right paw withdrawal threshold, von Frey filaments (mean)” value ([2]; 270 μg IA once on day 3, D7) was 2.85 grams, the “right paw withdrawal threshold, von Frey filaments (mean)” value ([2]; 270 μg IA once on day 3, D10) was 4.75*** grams and the “right paw withdrawal threshold, von Frey filaments (mean)” value ([2]; 270 μg IA once on day 3, D18) was 6.50*** grams. For the same substance, the “right paw withdrawal threshold, von Frey filaments (mean)” value ([2]; 270 μg IA once on day 3, D24) was 7.00*** grams and the “right paw withdrawal threshold, von Frey filaments (mean)” value ([2]; 270 μg IA once on day 3, D30) was 8.25*** grams.
In the case of liraglutide, the “right paw withdrawal threshold, Electronic von Frey (mean)” value [1, 5] is reported as 32.88 grams, the “right paw withdrawal threshold, Electronic von Frey (mean)” value ([1]; 180 μg IA once on day 3, D7) is reported as 63.60 grams and the “right paw withdrawal threshold, von Frey filaments (mean)” value [2, 5] is reported as 1.60^$$$ grams. For the same substance, the “right paw withdrawal threshold, von Frey filaments (mean)” value ([2]; 180 μg IA once on day 3, D7) was 8.00*** grams, the “right paw withdrawal threshold, von Frey filaments (mean)” value ([2]; 180 μg IA once on day 3, D10) was 9.63*** grams and the “right paw withdrawal threshold, von Frey filaments (mean)” value ([2]; 180 μg IA once on day 3, D18) was 11.63*** grams. The “right paw withdrawal threshold, von Frey filaments (mean)” value ([2]; 180 μg IA once on day 3, D24) was 10.25*** grams, the “right paw withdrawal threshold, von Frey filaments (mean)” value ([2]; 180 μg IA once on day 3, D30) was 9.00*** grams and the “von Frey score normalized to vehicle group (31M)” value ([3]; 180 μg IA (group 37M), at day 10, level maintained for 20 days) was 70%.
With lixisenatide the “right paw withdrawal threshold, Electronic von Frey (mean)” value [1, 6] was 33.55 grams, the “right paw withdrawal threshold, Electronic von Frey (mean)” value ([1]; 3 μg IA once on day 3, D7) was 55.15 grams and the “right paw withdrawal threshold, von Frey filaments (mean)” value [2, 6] was 1.30^$$$ grams. The “right paw withdrawal threshold, von Frey filaments (mean)” value ([2]; 3 μg IA once on day 3, D7) was 5.00** grams, the “right paw withdrawal threshold, von Frey filaments (mean)” value ([2]; 3 μg IA once on day 3, D10) was 7.63*** grams and the “right paw withdrawal threshold, von Frey filaments (mean)” value ([2]; 3 μg IA once on day 3, D18) was 7.75*** grams. The “right paw withdrawal threshold, von Frey filaments (mean)” value ([2]; 3 μg IA once on day 3, D24) was 7.25*** grams, the “right paw withdrawal threshold, von Frey filaments (mean)” value ([2]; 3 μg IA once on day 3, D30) was 8.88*** grams and the “von Frey score normalized to vehicle group (31M)” value ([3]; 3 μg IA (group 36M), raised to and kept) was 60%.
